Test results from US12178210B2, “Insect attractant and killing system” (priority 2020, dated 2024).
Read-outs that look alike come from different tables or passages of the source.

Key:
[1] = for Attractant Release Rate (5-day average per time point): 15 g
Text: All prototype lure devices (i.e., the attractant receptacle and permeable membrane with enclosed volatile insect attractant) were constructed using polypropylene/calcium carbonate film (UV8) for the permeable membrane and Scotchpak™ (3M) polyester laminate film for the impermeable barrier material. Each lure device measured approximately 11.5 cm×5.5 cm with a 1.6 mm ( 1/16 in) diameter spherical punch in the impermeable layer exposing the membrane and an ˜8 mm ( 5/16 in) diameter heat seal around the circumference of the punch (referred to as a ring seal). […] Prior to being deployed the lures were weighed on an analytical balance (Sartorius, Universal; resolution of 0.01 g). Prototype lures were attached to a cord that ran the length of ventilated laboratory fume hood, with 5-8 cm (2-3 in) separating each lure in an open, ventilated room at the indicated temperature (18-20° C. or 39-41° C.). Every 2-3 days the lures were removed from the cord and weighed on the same scale. Lure weight was recorded and the weight loss (g/day) was calculated. In addition to prototype lures, two controls were included in the study consisting of a current Suterra lure product (WHF lure) and a competitor product (Comp. Prod. 1).

[2] = field, Valencia
Protocol: Every two weeks samples of the attractant were weighed to determine the mass. From the mass, the mass that had been released, the mass remaining, and the amount of ammonia released was determined.

N.N.O=C(O)O [Ammonium Carbonate, ammonium carbonate]
Release Rate ([1]; 40° C., 16 hours, UV8 membrane, 1.6 mm orifice): 0.39 g/day
Release Rate ([1]; 40° C., 16 hours, second, unexplained block of rows): 0.02 g/day
Release Rate ([1]; 40° C., 24 hours, UV8 membrane, 1.6 mm orifice): 0.37 g/day
Release Rate ([1]; 40° C., 24 hours, second, unexplained block of rows): 0.03 g/day
Release Rate ([1]; 40° C., 51 hours, UV8 membrane, 1.6 mm orifice): 0.36 g/day
Release Rate ([1]; 40° C., 51 hours, second, unexplained block of rows): 0.05 g/day
Release Rate ([1]; 40° C., 88 hours, UV8 membrane, 1.6 mm orifice): 0.36 g/day
Release Rate ([1]; 40° C., 88 hours, second, unexplained block of rows): 0.09 g/day
Release Rate ([1]; 40° C., 96 hours, UV8 membrane, 1.6 mm orifice): 0.36 g/day
Release Rate ([1]; 40° C., 96 hours, second, unexplained block of rows): 0.09 g/day
Release Rate ([1]; 40° C., 112 hours, UV8 membrane, 1.6 mm orifice): 0.36 g/day
Release Rate ([1]; 40° C., 112 hours, second, unexplained block of rows): 0.10 g/day
Release Rate ([1]; 40° C., 120 hours, UV8 membrane, 1.6 mm orifice): 0.36 g/day
Release Rate ([1]; 40° C., 120 hours, second, unexplained block of rows): 0.11 g/day
Release Rate ([1]; 40° C., 144 hours, UV8 membrane, 1.6 mm orifice): 0.36 g/day
Release Rate ([1]; 40° C., 144 hours, second, unexplained block of rows): 0.13 g/day
Release Rate ([1]; 40° C., 168 hours, UV8 membrane, 1.6 mm orifice): 0.35 g/day
Release Rate ([1]; 40° C., 168 hours, second, unexplained block of rows): 0.15 g/day
Attractant Release Rate (5-day average per time point) ([1]; 40° C., day 5, UV8 membrane, 1.6 mm orifice): 391.6 mg/day
Attractant Release Rate (5-day average per time point) ([1]; 40° C., day 10, UV8 membrane, 1.6 mm orifice): 402.8 mg/day
Attractant Release Rate (5-day average per time point) ([1]; 40° C., day 15, UV8 membrane, 1.6 mm orifice): 396.5 mg/day
Attractant Release Rate (5-day average per time point) ([1]; 40° C., day 20, UV8 membrane, 1.6 mm orifice): 316.7 mg/day
Attractant Release Rate (5-day average per time point) ([1]; 40° C., day 25, UV8 membrane, 1.6 mm orifice): 198.0 mg/day
Attractant Release Rate (5-day average per time point) ([1]; 40° C., day 30, UV8 membrane, 1.6 mm orifice): 156.0 mg/day
Attractant Release Rate (5-day average per time point) ([1]; 40° C., day 35, UV8 membrane, 1.6 mm orifice): 112.0 mg/day
Attractant Release Rate (5-day average per time point) ([1]; 40° C., day 40, UV8 membrane, 1.6 mm orifice): 108.4 mg/day
Attractant Release Rate (5-day average per time point) ([1]; 40° C., day 45, UV8 membrane, 1.6 mm orifice): 100.4 mg/day
Attractant Release Rate (5-day average per time point) ([1]; 40° C., day 49, UV8 membrane, 1.6 mm orifice): 98.0 mg/day
Attractant Release Rate (5-day average per time point) ([1]; 40° C., day 55, UV8 membrane, 1.6 mm orifice): 87.7 mg/day
Attractant Release Rate (5-day average per time point) ([1]; Ambient Temperature, day 5, UV8 membrane, 1.6 mm orifice): 97 mg/day
Attractant Release Rate (5-day average per time point) ([1]; Ambient Temperature, day 10, UV8 membrane, 1.6 mm orifice): 99.5 mg/day
Attractant Release Rate (5-day average per time point) ([1]; Ambient Temperature, day 15, UV8 membrane, 1.6 mm orifice): 101.9 mg/day
Attractant Release Rate (5-day average per time point) ([1]; Ambient Temperature, day 20, UV8 membrane, 1.6 mm orifice): 104.2 mg/day
Attractant Release Rate (5-day average per time point) ([1]; Ambient Temperature, day 25, UV8 membrane, 1.6 mm orifice): 100.5 mg/day
Attractant Release Rate (5-day average per time point) ([1]; Ambient Temperature, day 30, UV8 membrane, 1.6 mm orifice): 101.3 mg/day
Attractant Release Rate (5-day average per time point) ([1]; Ambient Temperature, day 35, UV8 membrane, 1.6 mm orifice): 100.0 mg/day
Attractant Release Rate (5-day average per time point) ([1]; Ambient Temperature, day 40, UV8 membrane, 1.6 mm orifice): 86.0 mg/day
Attractant Release Rate (5-day average per time point) ([1]; Ambient Temperature, day 45, UV8 membrane, 1.6 mm orifice): 86.5 mg/day
Attractant Release Rate (5-day average per time point) ([1]; Ambient Temperature, day 49, UV8 membrane, 1.6 mm orifice): 84.4 mg/day
Attractant Release Rate (5-day average per time point) ([1]; Ambient Temperature, day 55, UV8 membrane, 1.6 mm orifice): 83.8 mg/day
Release Rate ([1]; Ambient, 16 hours, UV8 membrane, 1.6 mm orifice): 0.12 g/day
Release Rate ([1]; Ambient, 16 hours, second, unexplained block of rows): 0.01 g/day
Release Rate ([1]; Ambient, 24 hours, UV8 membrane, 1.6 mm orifice): 0.12 g/day
Release Rate ([1]; Ambient, 24 hours, second, unexplained block of rows): 0.01 g/day
Release Rate ([1]; Ambient, 51 hours, UV8 membrane, 1.6 mm orifice): 0.12 g/day
Release Rate ([1]; Ambient, 51 hours, second, unexplained block of rows): 0.04 g/day
Release Rate ([1]; Ambient, 88 hours, UV8 membrane, 1.6 mm orifice): 0.11 g/day
Release Rate ([1]; Ambient, 88 hours, second, unexplained block of rows): 0.06 g/day
Release Rate ([1]; Ambient, 96 hours, UV8 membrane, 1.6 mm orifice): 0.12 g/day
Release Rate ([1]; Ambient, 96 hours, second, unexplained block of rows): 0.07 g/day
Release Rate ([1]; Ambient, 112 hours, UV8 membrane, 1.6 mm orifice): 0.11 g/day
Release Rate ([1]; Ambient, 112 hours, second, unexplained block of rows): 0.08 g/day
Release Rate ([1]; Ambient, 120 hours, UV8 membrane, 1.6 mm orifice): 0.12 g/day
Release Rate ([1]; Ambient, 120 hours, second, unexplained block of rows): 0.08 g/day
Release Rate ([1]; Ambient, 144 hours, UV8 membrane, 1.6 mm orifice): 0.11 g/day
Release Rate ([1]; Ambient, 144 hours, second, unexplained block of rows): 0.08 g/day
Release Rate ([1]; Ambient, 168 hours, UV8 membrane, 1.6 mm orifice): 0.11 g/day
Release Rate ([1]; Ambient, 168 hours, second, unexplained block of rows): 0.11 g/day
Avg. Mass Loss ([2]; week 0, ave. temp. 25.10 ° C): 0.00 g
Avg. Mass Remaining ([2]; week 0, ave. temp. 25.10 ° C): 14.94 g
Avg. Release Rate ([2]; week 0, ave. temp. 25.10 ° C): 0.000 g/day
Avg. Mass Loss ([2]; week 2, ave. temp. 26.30 ° C): 0.48 g
Avg. Mass Remaining ([2]; week 2, ave. temp. 26.30 ° C): 14.46 g
Avg. Release Rate ([2]; week 2, ave. temp. 26.30 ° C): 0.035 g/day
Avg. Mass Loss ([2]; week 4, ave. temp. 26.90 ° C): 1.57 g
Avg. Mass Remaining ([2]; week 4, ave. temp. 26.90 ° C): 13.37 g
Avg. Release Rate ([2]; week 4, ave. temp. 26.90 ° C): 0.078 g/day
Avg. Mass Loss ([2]; week 6, ave. temp. 27.10 ° C): 2.73 g
Avg. Mass Remaining ([2]; week 6, ave. temp. 27.10 ° C): 12.21 g
Avg. Release Rate ([2]; week 6, ave. temp. 27.10 ° C): 0.083 g/day
Avg. Mass Loss ([2]; week 8, ave. temp. 24.40 ° C): 3.77 g
Avg. Mass Remaining ([2]; week 8, ave. temp. 24.40 ° C): 11.17 g
Avg. Release Rate ([2]; week 8, ave. temp. 24.40 ° C): 0.074 g/day
Avg. Mass Loss ([2]; week 10, ave. temp. 22.60 ° C): 4.09 g
Avg. Mass Remaining ([2]; week 10, ave. temp. 22.60 ° C): 10.85 g
Avg. Release Rate ([2]; week 10, ave. temp. 22.60 ° C): 0.023 g/day
Avg. Mass Loss ([2]; week 12, ave. temp. 21.50 ° C): 4.66 g
Avg. Mass Remaining ([2]; week 12, ave. temp. 21.50 ° C): 10.28 g
Avg. Release Rate ([2]; week 12, ave. temp. 21.50 ° C): 0.041 g/day
Avg. Mass Loss ([2]; week 14, ave. temp. 19.90 ° C): 4.93 g
Avg. Mass Remaining ([2]; week 14, ave. temp. 19.90 ° C): 10.01 g
Avg. Release Rate ([2]; week 14, ave. temp. 19.90 ° C): 0.019 g/day
Avg. Mass Loss ([2]; week 16, ave. temp. 17.70 ° C): 5.11 g
Avg. Mass Remaining ([2]; week 16, ave. temp. 17.70 ° C): 9.83 g
Avg. Release Rate ([2]; week 16, ave. temp. 17.70 ° C): 0.013 g/day
Avg. Mass Loss ([2]; week 18, ave. temp. 15.30 ° C): 5.30 g
Avg. Mass Remaining ([2]; week 18, ave. temp. 15.30 ° C): 9.64 g
Avg. Release Rate ([2]; week 18, ave. temp. 15.30 ° C): 0.013 g/day
Avg. Mass Loss ([2]; week 20, ave. temp. 14.40 ° C): 5.59 g
Avg. Mass Remaining ([2]; week 20, ave. temp. 14.40 ° C): 9.35 g
Avg. Release Rate ([2]; week 20, ave. temp. 14.40 ° C): 0.021 g/day
Avg. Mass Loss ([2]; week 24, ave. temp. 11.70 ° C): 5.86 g
Avg. Mass Remaining ([2]; week 24, ave. temp. 11.70 ° C): 9.08 g
Avg. Release Rate ([2]; week 24, ave. temp. 11.70 ° C): 0.009 g/day
Avg. Mass Loss ([2]; week 28, ave. temp. […] C): 6.20 g
Avg. Mass Remaining ([2]; week 28, ave. temp. […] C): 8.74 g
Avg. Release Rate ([2]; week 28, ave. temp. […] C): 0.012 g/day
Avg. Mass Loss ([2]; week 31, ave. temp. […] C): 6.80 g
Avg. Mass Remaining ([2]; week 31, ave. temp. […] C): 8.14 g
Avg. Release Rate ([2]; week 31, ave. temp. […] C): 0.028 g/day
Avg. Mass Loss ([2]; week 35, ave. temp. 12.60 ° C): 7.29 g
Avg. Mass Remaining ([2]; week 35, ave. temp. 12.60 ° C): 7.65 g
Avg. Release Rate ([2]; week 35, ave. temp. 12.60 ° C): 0.018 g/day
Avg. Mass Loss ([2]; week 38, ave. temp. 13.50 ° C): 7.56 g
Avg. Mass Remaining ([2]; week 38, ave. temp. 13.50 ° C): 7.38 g
Avg. Release Rate ([2]; week 38, ave. temp. 13.50 ° C): 0.013 g/day
Avg. Mass Loss ([2]; week 39, ave. temp. 13.30 ° C): 7.80 g
Avg. Mass Remaining ([2]; week 39, ave. temp. 13.30 ° C): 7.14 g
Avg. Release Rate ([2]; week 39, ave. temp. 13.30 ° C): 0.033 g/day
Avg. Mass Loss ([2]; week 41, ave. temp. 15.80 ° C): 8.12 g
Avg. Mass Remaining ([2]; week 41, ave. temp. 15.80 ° C): 6.82 g
Avg. Release Rate ([2]; week 41, ave. temp. 15.80 ° C): 0.023 g/day
Avg. Mass Loss ([2]; week 43, ave. temp. 16.50 ° C): 8.44 g
Avg. Mass Remaining ([2]; week 43, ave. temp. 16.50 ° C): 6.50 g
Avg. Release Rate ([2]; week 43, ave. temp. 16.50 ° C): 0.023 g/day
Avg. Mass Loss ([2]; week 46, ave. temp. 18.10 ° C): 9.17 g
Avg. Mass Remaining ([2]; week 46, ave. temp. 18.10 ° C): 5.77 g
Avg. Release Rate ([2]; week 46, ave. temp. 18.10 ° C): 0.035 g/day
Avg. Mass Loss ([2]; week 47, ave. temp. 20.40 ° C): 9.48 g
Avg. Mass Remaining ([2]; week 47, ave. temp. 20.40 ° C): 5.46 g
Avg. Release Rate ([2]; week 47, ave. temp. 20.40 ° C): 0.044 g/day
